Test results published in US6569842B2 (Board of Trustees of the University of Illinois, The, priority 2000, dated 2003).
≈ marks a conversion by molar mass, not a printed value. Like-named read-outs stand apart in the source and are kept apart here.

How the values were obtained:
COL-2 (colon) [1] = experiment: Cytotoxicity against cultured COL-2 cells (SRB); assay type: cell-based, human; conditions: Method B, sample dissolved in tissue culture media
ZR-75-1 (breast) [2] = experiment: Cytotoxicity against cultured ZR-75-1 cells (SRB); assay type: cell-based, human
[3] = mouse, in vivo, 500 mg/kg
Procedure: In particular, the data was derived from experiments wherein four week old athymic mice were injected subcutaneously in the right flank with 3.0×10^8 UISO MEL-2 cells. UISO MEL-2 is a cell line derived from metastatic melanoma from human pleural fluid. Drug treatment was initiated on the day following tumor cell injection and continued every fourth day for a total of six doses. […] The mice were weighed, and the tumors measured with a micrometer every other day throughout the study. All animals were sacrificed and autopsied on day 33, when the mean tumor volume in the control animals was approximately one cm^3.

BC-1 (breast) [4] = experiment: Cytotoxicity against cultured BC-1 cells (SRB); assay type: cell-based, human; conditions: Homo sapiens, BC1, 72 h, read-out: ED50 BC-1
Procedure: (§1) Cytotoxicity of the crude extracts and purified compounds was determined in a number of cultured human cancer cell lines. Table 1 sets forth the various types of cancer cells evaluated using Method A. The cells were cultured in appropriate media and under standard conditions. To maintain logarithmic growth, the media were changed 24 hours prior to cytotoxic assays. On the day of the assay, the cells were harvested by trypsinization, counted, diluted in media, and added to 96-well plates containing test compounds dissolved in DMSO. The final DMSO concentration was 0.05%.
In each of Methods A-C, the plates were incubated for three days. Following the incubation period, the cells were fixed and stained with sulforhodamine B (SRB) dye. The bound dye was liberated with Tris base, and the OD515 (optical density at 515 nm) was measured on an ELISA reader. […] Dose response studies were performed to generate ED50 values. As used herein, the term OD515 is defined as optical density at 515 nm, and the term ED50 is defined as the concentration of a compound required to reduce cell number by 50%.

BC-1 (breast) [5] = experiment: Cytotoxicity against cultured BC-1 cells (SRB); assay type: cell-based, human; conditions: Method B, sample dissolved in tissue culture media
U373 (glioma) [6] = experiment: Cytotoxicity against cultured U373 cells (SRB); assay type: cell-based, human; conditions: Method A, sample dissolved in DMSO; three days incubation
Procedure: as §1
(§2) In each of Methods A-C, the plates were incubated for three days. Following the incubation period, the cells were fixed and stained with sulforhodamine B (SRB) dye. The bound dye was liberated with Tris base, and the OD515 (optical density at 515 nm) was measured on an ELISA reader. The growth of the betulinic acid-treated cells was determined by the OD515 values, and the growth was compared to the OD515 values of […] control cells of Methods A-C. Dose response studies were performed to generate ED50 values. As used herein, the term OD515 is defined as optical density at 515 nm, and the term ED50 is defined as the concentration of a compound required to reduce cell number by 50%.

LNCaP (prostate) [7] = experiment: Cytotoxicity against cultured LNCaP cells (SRB); assay type: cell-based, human
[8] = test system: MEL-4 human melanoma cell line; experiment: Cytotoxicity against cultured MEL-4 cells (SRB); assay type: cell-based
Procedure: as §1, §2

[9] = test system: KB (human oral epidermoid carcinoma); experiment: Cytotoxicity against cultured KB cells (SRB); assay type: cell-based
Procedure: as §1, §2

MEL-2 (melanoma) [10] = experiment: Cytotoxicity against cultured MEL-2 cells (SRB); assay type: cell-based, human
[11] = test system: MEL-1 human melanoma cell line; experiment: Cytotoxicity against cultured MEL-1 cells (SRB); assay type: cell-based
Procedure: as §1, §2

MEL-2 (melanoma) [12] = experiment: Cytotoxicity against cultured MEL-2 cells (SRB); assay type: cell-based, human; conditions: Homo sapiens, MEL2, 72 h, read-out: ED50 MEL-2
Procedure: as §1, §2

LU-1 (lung) = experiment: Cytotoxicity against cultured LU-1 cells (SRB); assay type: cell-based, human; conditions: for IC50: Homo sapiens, Lu1, 72 h, Method A, sample dissolved in DMSO, three days incubation, read-out: ED50 LU-1
Procedure: as §1, §2

COL-2 (colon) [13] = experiment: Cytotoxicity against cultured COL-2 cells (SRB); assay type: cell-based, human; conditions: Homo sapiens, Col2, 72 h, read-out: ED50 COL-2
Procedure: as §1, §2

LNCaP (prostate) [14] = experiment: Cytotoxicity against cultured LNCaP cells (SRB); assay type: cell-based, human; conditions: Method A, sample dissolved in DMSO; three days incubation
Procedure: as §1, §2

[15] = 200 and 400 mg/kg doses; cited from earlier work
U373 (glioma) [16] = experiment: Cytotoxicity against cultured U373 cells (SRB); assay type: cell-based, human
UISO MEL-1 cells = experiment: In vivo study, MEL-1 tumors in athymic mice; conditions: 5, 50 or 250 mg/kg/dose IP betulinic acid/PVP every fourth day, six doses
Procedure: In particular, four-week-old athymic mice were injected subcutaneously in the right flank with 5.0×10^8 UISO MEL-1 cells. Drug treatment was initiated on the day following tumor cell injection and continued every fourth day for a total of six doses. […] The mice were weighed, and tumors were measured with a micrometer every third day throughout the study. Treated animals were sacrificed and autopsied on day 41, when the mean tumor volume in the control mice was approximately 0.5 cm^3. The control mice then received six doses of 50 mg/kg every fourth day beginning day 41 and were sacrificed and autopsied on day 71.
The results with respect to MEL-1 cells were similar to the results with respect to MEL-2 cells.

A431 (squamous cells) = experiment: Cytotoxicity against cultured A431 cells (SRB); assay type: cell-based, human
Procedure: as §1, §2

[17] = test system: MEL-3 human melanoma cell line; experiment: Cytotoxicity against cultured MEL-3 cells; assay type: cell-based; conditions: dose-response study
Procedure: as §2

[18] = test system: human neuroblastoma cell lines; experiment: Cytotoxic activity against neuroblastoma cell lines; assay type: cell-based
HT-1080 (sarcoma) = experiment: Cytotoxicity against cultured HT-1080 cells (SRB); assay type: cell-based, human; conditions: for IC50: Homo sapiens, HT-1080, 72 h, Method A, sample dissolved in DMSO, three days incubation, read-out: ED50 HT-1080
Procedure: as §1, §2

ZR-75-1 (breast) [19] = experiment: Cytotoxicity against cultured ZR-75-1 cells (SRB); assay type: cell-based, human; conditions: Homo sapiens, ZR-75-1, 72 h, read-out: ED50 ZR 75-1
Procedure: as §1, §2

[20] = Method B, sample dissolved in tissue culture media
[21] = Method C, sample dissolved in 5% aqueous bovine serum albumin
[22] = Method A, sample dissolved in DMSO, three days incubation

For `C=C(C)[C@@H]1CC[C@]2(C(=O)O)CC[C@]3(C)[C@H](CC[C@@H]4[C@@]5(C)CC[C@H](O)C(C)(C)[C@@H]5CC[C@]43C)[C@@H]12` [Betulinic acid, 3β-hydroxy-lup-20 (29)ene-28-oic acid], the “ED50 Col2” value (COL-2 (colon) [1]) was 13.3 µg/mL (≈ 29.1 µM), the “ED50 ZA-75-1” value (ZR-75-1 (breast) [2]; [20]) was 6.4 µg/mL (≈ 14 µM) and the “ED50 ZA-75-1” value (ZR-75-1 (breast) [2]; [21]) was 6.9 µg/mL (≈ 15.1 µM). The “acute toxicity and body weight” value [3] was “without causing acute signs of toxicity or a decrease in body weight”, the IC50 (BC-1 (breast) [4]; [22]) was over 20 µg/mL and the “ED50 BC1” value (BC-1 (breast) [5]) was 11.2 µg/mL (≈ 24.5 µM). For the same molecule, the “ED50 U373” value (U373 (glioma) [6]) was over 20 µg/mL, the “ED50 LNCaP” value (LNCaP (prostate) [7]; [20]) was 19.3 µg/mL (≈ 42.3 µM) and the “ED50 LNCaP” value (LNCaP (prostate) [7]; [21]) was 16.6 µg/mL (≈ 36.3 µM). The “ED50 MEL-4” value [8, 22] was 4.8 µg/mL (≈ 10.5 µM), the “ED50 Mel4” value [8, 20] was 1.6 µg/mL (≈ 3.5 µM) and the “ED50 KB” value [9, 20] was over 20 µg/mL. The “ED50 KB” value [9, 21] was 16.6 µg/mL (≈ 36.3 µM), the “ED50 Mel2” value (MEL-2 (melanoma) [10]; [20]) was 0.9 µg/mL (≈ 1.97 µM) and the “ED50 Mel2” value (MEL-2 (melanoma) [10]; [21]) was 1.6 µg/mL (≈ 3.5 µM). The “ED50 MEL-1” value [11, 22] was 1.1 µg/mL (≈ 2.41 µM), the “ED50 Mel1” value [11, 20] was 0.9 µg/mL (≈ 1.97 µM) and the IC50 (MEL-2 (melanoma) [12]; [22]) was about 2 µg/mL (≈ 4.38 µM). For the same molecule, the IC50 (LU-1 (lung)) was over 20 µg/mL, the “ED50 Lu1” value (LU-1 (lung); [20]) was 7.7 µg/mL (≈ 16.9 µM) and the IC50 (COL-2 (colon) [13]; [22]) was over 20 µg/mL. For the same molecule, the “ED50 LNCaP” value (LNCaP (prostate) [14]) was over 20 µg/mL, the “activity in Hippocratic screen” value [15] was “inactive” and the “ED50 U373” value (U373 (glioma) [16]; [20]) was 12.1 µg/mL (≈ 26.5 µM). The “ED50 U373” value (U373 (glioma) [16]; [21]) was 18.7 µg/mL (≈ 40.9 µM), the “activity against MEL-1 tumors” value (UISO MEL-1 cells) was “active” and the “ED50 A431” value (A431 (squamous cells); [22]) was over 20 µg/mL. The “ED50 A431” value (A431 (squamous cells); [20]) was 12.1 µg/mL (≈ 26.5 µM), the “ED50 A431” value (A431 (squamous cells); [21]) was over 20 µg/mL and the “ED50 MEL-3” value [17] was 3.3 µg/mL (≈ 7.23 µM). For the same molecule, the “cytotoxic activity against human neuroblastoma cell lines” value [18] was “excellent cytotoxic activity”, the IC50 (HT-1080 (sarcoma)) was over 20 µg/mL and the “ED50 HT” value (HT-1080 (sarcoma); [20]) was 11.3 µg/mL (≈ 24.7 µM). The “ED50 HT” value (HT-1080 (sarcoma); [21]) was 10.0 µg/mL (≈ 21.9 µM) and the IC50 (ZR-75-1 (breast) [19]; [22]) was over 20 µg/mL.

Work on `CC[C@@]1(O)C(=O)OCc2c1cc1n(c2=O)Cc2cc3ccccc3nc2-1` [Camptothecin] yielded an IC50 (BC-1 (breast) [4]; [22]) of 0.07 µg/mL (≈ 0.201 µM), an IC50 (MEL-2 (melanoma) [12]; [22]) of 0.02 µg/mL (≈ 0.0574 µM) and an IC50 (COL-2 (colon) [13]; [22]) of 0.005 µg/mL (≈ 0.0144 µM). The “ED50 LNCaP” value (LNCaP (prostate) [14]) was 0.006 µg/mL (≈ 0.0172 µM), the IC50 (HT-1080 (sarcoma)) was 0.01 µg/mL (≈ 0.0287 µM) and the IC50 (ZR-75-1 (breast) [19]; [22]) was 0.001 µg/mL (≈ 0.00287 µM).

With `Cc1c2ccncc2c(C)c2c1[nH]c1ccccc12` [Ellipticine] the IC50 (BC-1 (breast) [4]; [22]) was 0.2 µg/mL (≈ 0.812 µM), the “ED50 U373” value (U373 (glioma) [6]) was 1.6 µg/mL (≈ 6.5 µM) and the “ED50 KB” value [9, 22] was 0.04 µg/mL (≈ 0.162 µM). It also gave an IC50 (MEL-2 (melanoma) [12]; [22]) of 0.9 µg/mL (≈ 3.65 µM), an IC50 (LU-1 (lung)) of 0.02 µg/mL (≈ 0.0812 µM) and an IC50 (COL-2 (colon) [13]; [22]) of 0.3 µg/mL (≈ 1.22 µM). The “ED50 LNCaP” value (LNCaP (prostate) [14]) was 0.8 µg/mL (≈ 3.25 µM), the “ED50 A431” value (A431 (squamous cells); [22]) was 0.5 µg/mL (≈ 2.03 µM) and the IC50 (HT-1080 (sarcoma)) was 1.8 µg/mL (≈ 7.31 µM). For the same molecule, the IC50 (ZR-75-1 (breast) [19]; [22]) was 0.9 µg/mL (≈ 3.65 µM).

With `COC(=O)C[C@](O)(CCCC(C)(C)O)C(=O)O[C@@H]1C(OC)=C[C@]23CCCN2CCc2cc4c(cc2[C@H]13)OCO4` [Homoharringtonine] the IC50 (BC-1 (breast) [4]; [22]) was 0.03 µg/mL (≈ 0.055 µM), the “ED50 U373” value (U373 (glioma) [6]) was 0.2 µg/mL (≈ 0.367 µM) and the IC50 (MEL-2 (melanoma) [12]; [22]) was 0.04 µg/mL (≈ 0.0733 µM). For the same molecule, the IC50 (LU-1 (lung)) was 0.03 µg/mL (≈ 0.055 µM), the IC50 (COL-2 (colon) [13]; [22]) was 0.1 µg/mL (≈ 0.183 µM) and the “ED50 LNCaP” value (LNCaP (prostate) [14]) was 0.03 µg/mL (≈ 0.055 µM). For the same molecule, the “ED50 A431” value (A431 (squamous cells); [22]) was 0.02 µg/mL (≈ 0.0367 µM), the IC50 (HT-1080 (sarcoma)) was 0.01 µg/mL (≈ 0.0183 µM) and the IC50 (ZR-75-1 (breast) [19]; [22]) was 0.06 µg/mL (≈ 0.11 µM).

In the case of `COc1cc([C@@H]2c3cc4c(cc3[C@H](O)[C@H]3COC(=O)[C@H]23)OCO4)cc(OC)c1OC` [Podophyllotoxin], the IC50 (BC-1 (breast) [4]) is reported as 0.03 µg/mL (≈ 0.0724 µM), the “ED50 U373” value (U373 (glioma) [6]) is reported as 0.004 µg/mL (≈ 0.00965 µM) and the “ED50 KB” value [9, 22] is reported as 0.08 µg/mL (≈ 0.193 µM). The IC50 (MEL-2 (melanoma) [12]) was 0.003 µg/mL (≈ 0.00724 µM), the IC50 (COL-2 (colon) [13]) was 0.005 µg/mL (≈ 0.0121 µM) and the “ED50 LNCaP” value (LNCaP (prostate) [14]) was 0.04 µg/mL (≈ 0.0965 µM). For the same molecule, the “ED50 A431” value (A431 (squamous cells); [22]) was 0.03 µg/mL (≈ 0.0724 µM) and the IC50 (ZR-75-1 (breast) [19]) was 0.4 µg/mL (≈ 0.965 µM).
